Patent publication US20020156038A1, “Gene expression profiling of antidepressant action in the brain” (priority 2000, published 2002)
Counter-ions that a name gives are not always drawn.

Tests used:
[1] = system: tyrosine hydroxylase mRNA; experiment: Quantitative in situ hybridization histochemistry in locus coeruleus; assay type: in vivo, rat; settings: LC
Description: In situ hybridization histochemistry was performed according to the procedures described [Bonaventure, 1998 #353] on adjacent tissue sections of the one used for LCM. The plasmid (pBluescript II SK, Stratagene, San Diego, Calif.) containing the cDNA coding for tyrosine hydroxylase (GB:M10244) was linearized and [^35S]UTP labeled cRNA probe was generated by in vitro transcription with T7 polymerase. Sections were hybridized at 50° C. with 1.106 c.p.m of [^35S]UTP labeled cRNA probe (80 μl per section). After high stringency washes, the sections were exposed to Kodak BiomaxMR film for sixteen hours. [^14C] standard strips (American Radiolabeled chemicals Inc., St Louis, Missouri) were co-exposed to allow densitometry. Autoradiograms were quantified with the aid of an MCID-M4 3.0 Image Analysis system (Imaging Research, St. Catharines, Ontario, Canada). Optical densities in the LC were transformed into levels of bound radioactivity after calibration of the image analyzer with grey-values generated by co-exposed standards. The hybridization signal was expressed as μCi/g. The Student's t-test was used for comparison between the groups.

[2] = system: male Wistar rats; experiment: Chronic mild stress (CMS) model, consumption of 1% sucrose solution; assay type: in vivo, rat; settings: for sucrose intake as compared to chronic vehicle administration: control animals; for duration of treatment until increase of sucrose intake reached significance / sucrose consumption (CMS-induced deficit) / sucrose intake at end of treatment vs vehicle-treated controls / sucrose intake at end of treatment vs vehicle-treated stressed animals: stressed animals; for sucrose intake at end of treatment vs vehicle-treated controls / sucrose intake at end of treatment vs vehicle-treated stressed animals: Week 5
Description: Gene expression profiling of antidepressants should be carried in the context of a behavioral model of depression. […] [Willner, 1997 #144] [Yadid, 2000 #422]. The CMS model was developed to mimic anhedonia, a core symptom of depressive disorders. Chronic sequential administration of a variety of mild stressors causes a decrease in responsiveness to rewards in rats, which is reversed by chronic administration of antidepressants drugs [Willner, 1992 #150]. The CMS model of depression also causes a decrease in body weight [Forbes, 1996 #413] but the magnitude of this decrease is minor and the validity, reliability and utility of the CMS is overall well recognized [Yadid, 2000 #422] [Argyropoulos, 1997 #205] #] [Willner, 1996 #226].
On the basis of sucrose intake scores following two weeks of stress, both stressed and control groups were divided further into matched subgroups (n=8), and for the subsequent five weeks received twice-daily intraperitoneal injections of vehicle (isotonic mannitol solution, pH 4.0, 1 ml/kg) or novelR1 (0.16 mg/kg). […] Sucrose tests were carried out twenty-four hours following the last drug injection (in the case of b.i.d. regime, the second injections on the day preceding the sucrose tests were omitted).
The behavioral results obtained in this study were analyzed by multiple analysis of variance with three between-subjects factors (stress/control, drug treatments and successive sucrose tests). Fisher's LSD test was used for post-hoc comparisons of means.

| Compound | up-regulation of tyrosine hydroxylase mRNA level by in situ hybridization ([1]; drug/CMS group) | up-regulation of tyrosine hydroxylase mRNA level by in situ hybridization ([1]; unstressed rats) | sucrose intake at the end of the behavioral experiment ([2]; CMS) [grams] | sucrose intake at the end of the behavioral experiment ([2]; control) [grams] | sucrose intake as compared to chronic vehicle administration [2] | duration of treatment until increase of sucrose intake reached significance [2] | sucrose consumption (CMS-induced deficit) [2] | sucrose intake at end of treatment vs vehicle-treated controls [2] | sucrose intake at end of treatment vs vehicle-treated stressed animals [2] |
| --- | --- | --- | --- | --- | --- | --- | --- | --- | --- |
| CN(C)CCCN1c2ccccc2CCc2ccccc21 [imipramine, imipramine HCl] | confirmed | confirmed | 13 | 13 | did not change the sucrose intake | three | gradually increased the sucrose consumption | comparable | significantly higher |
| Cc1nc2ccccn2c(=O)c1CCN1CCc2oc3ccccc3c2C1 [novelR1] | confirmed | confirmed | 13 | 13 | no significant effect | two | fully reversed | did not differ | significantly higher |
